Data published in PubChem BioAssay AID1918996 (Molecular Pharmacology Branch, DTP, NCI, 2023).

Test system: 349418-098-R-PDC complex spheroid growth
Assay: Anticancer human tumor 349418-098-R-PDC patient-derived lung adenocarcinoma cell line growth inhibition [AhR]
Conditions: for IC50: curve of first compound; for viability, T/C: stronger effect = lower value
Outline: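 Agents were dosed in half-log steps down from roughly clinical Cmax, or from 10 microM where Cmax was unknown, alone and with AhR antagonists. Read-out: percent test/control growth of tumor spheroids containing HUVEC and MSC stromal cells.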

[1] = second compound 0.1 µM, first compound 0.0316 µM
[2] = second compound 0.1 µM, first compound 0.1 µM
[3] = second compound 0.1 µM, first compound 0.316 µM
[4] = second compound 0.1 µM, first compound 1 µM
[5] = second compound 0.1 µM, first compound 3.16 µM
[6] = second compound 0.1 µM, first compound 10 µM
[7] = second compound 0.316 µM, first compound 0.0316 µM
[8] = second compound 0.316 µM, first compound 0.1 µM
[9] = second compound 0.316 µM, first compound 0.316 µM
[10] = second compound 0.316 µM, first compound 1 µM
[11] = second compound 0.316 µM, first compound 3.16 µM
[12] = second compound 0.316 µM, first compound 10 µM
[13] = second compound 1 µM, first compound 0.0316 µM
[14] = second compound 1 µM, first compound 0.1 µM
[15] = second compound 1 µM, first compound 0.316 µM
[16] = second compound 1 µM, first compound 1 µM
[17] = second compound 1 µM, first compound 3.16 µM
[18] = second compound 1 µM, first compound 10 µM
[19] = second compound 3.16 µM, first compound 0.0316 µM
[20] = second compound 3.16 µM, first compound 0.1 µM
[21] = second compound 3.16 µM, first compound 0.316 µM
[22] = second compound 3.16 µM, first compound 1 µM
[23] = second compound 3.16 µM, first compound 3.16 µM
[24] = second compound 3.16 µM, first compound 10 µM
[25] = second compound 10 µM, first compound 0.0316 µM
[26] = second compound 10 µM, first compound 0.1 µM
[27] = second compound 10 µM, first compound 0.316 µM
[28] = second compound 10 µM, first compound 1 µM
[29] = second compound 10 µM, first compound 3.16 µM
[30] = second compound 10 µM, first compound 10 µM
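Also: spheroids exposed to agents for seven days before luminescence viability read.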
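For viability, T/C in this document: spheroids also contain HUVEC endothelial cells and human MSC stroma.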

With `CC(C)CC(NC(=O)C(Cc1ccccc1)NC(=O)c1cnccn1)B(O)O` (stereo not given) + Cc1ccccc1N=Nc1ccc(NC(=O)c2ccnn2C)c(C)c1 the IC50 (second compound 0.1 µM) was < 0.949 nM, the IC50 (second compound 0.316 µM) was < 0.949 nM and the IC50 (second compound 1 µM) was 1.18 nM. For the same molecule, the IC50 (second compound 3.16 µM) was 1.06 nM, the IC50 (second compound 10 µM) was < 0.949 nM and the viability, T/C (second compound 0.1 µM, first compound 0.000949 µM) was 46.8%. It also gave a viability, T/C (second compound 0.1 µM, first compound 0.003 µM) of 11.1%, a viability, T/C (second compound 0.1 µM, first compound 0.00949 µM) of 3.13% and a viability, T/C (second compound 0.1 µM, first compound 0.03 µM) of 1.55%. The viability, T/C (second compound 0.1 µM, first compound 0.0949 µM) was 1.77%, the viability, T/C (second compound 0.1 µM, first compound 0.3 µM) was 0.98% and the viability, T/C (second compound 0.316 µM, first compound 0.000949 µM) was 48.2%. For the same molecule, the viability, T/C (second compound 0.316 µM, first compound 0.003 µM) was 11.7%, the viability, T/C (second compound 0.316 µM, first compound 0.00949 µM) was 2.73% and the viability, T/C (second compound 0.316 µM, first compound 0.03 µM) was 1.61%. It also gave a viability, T/C (second compound 0.316 µM, first compound 0.0949 µM) of 1.03%, a viability, T/C (second compound 0.316 µM, first compound 0.3 µM) of 1.37% and a viability, T/C (second compound 1 µM, first compound 0.000949 µM) of 58.5%. The viability, T/C (second compound 1 µM, first compound 0.003 µM) was 13.4%, the viability, T/C (second compound 1 µM, first compound 0.00949 µM) was 2.69% and the viability, T/C (second compound 1 µM, first compound 0.03 µM) was 1.87%. The viability, T/C (second compound 1 µM, first compound 0.0949 µM) was 1.39%, the viability, T/C (second compound 1 µM, first compound 0.3 µM) was 1.15% and the viability, T/C (second compound 3.16 µM, first compound 0.000949 µM) was 53.7%. It also gave a viability, T/C (second compound 3.16 µM, first compound 0.003 µM) of 14%, a viability, T/C (second compound 3.16 µM, first compound 0.00949 µM) of 2.77% and a viability, T/C (second compound 3.16 µM, first compound 0.03 µM) of 1.76%. The viability, T/C (second compound 3.16 µM, first compound 0.0949 µM) was 1.72%, the viability, T/C (second compound 3.16 µM, first compound 0.3 µM) was 1.32% and the viability, T/C (second compound 10 µM, first compound 0.000949 µM) was 41.6%. For the same molecule, the viability, T/C (second compound 10 µM, first compound 0.003 µM) was 14.5%, the viability, T/C (second compound 10 µM, first compound 0.00949 µM) was 2.75% and the viability, T/C (second compound 10 µM, first compound 0.03 µM) was 1.8%. The viability, T/C (second compound 10 µM, first compound 0.0949 µM) was 1.43% and the viability, T/C (second compound 10 µM, first compound 0.3 µM) was 1.45%.
`COc1cc(Nc2ncc3c(n2)-c2ccc(Cl)cc2C(c2c(F)cccc2OC)=NC3)ccc1C(=O)O` + Cc1ccccc1N=Nc1ccc(NC(=O)c2ccnn2C)c(C)c1 showed an IC50 (second compound 0.1 µM) of 105 nM, an IC50 (second compound 0.316 µM) of 157 nM and an IC50 (second compound 1 µM) of 65.7 nM. The IC50 (second compound 3.16 µM) was < 31.6 nM, the IC50 (second compound 10 µM) was < 31.6 nM and the viability, T/C [1] was 70.5%. It also gave a viability, T/C [2] of 50.9%, a viability, T/C [3] of 30.5% and a viability, T/C [4] of 30.8%. It also gave a viability, T/C [5] of 33.5%, a viability, T/C [6] of 31.1% and a viability, T/C [7] of 64.8%. The viability, T/C [8] was 63%, the viability, T/C [9] was 29.8% and the viability, T/C [10] was 28.5%. The viability, T/C [11] was 23.4%, the viability, T/C [12] was 26% and the viability, T/C [13] was 71.8%. For the same molecule, the viability, T/C [14] was 36.6%, the viability, T/C [15] was 34.4% and the viability, T/C [16] was 32.3%. For the same molecule, the viability, T/C [17] was 30.5%, the viability, T/C [18] was 26.5% and the viability, T/C [19] was 48.7%. The viability, T/C [20] was 38.1%, the viability, T/C [21] was 32.2% and the viability, T/C [22] was 27.1%. For the same molecule, the viability, T/C [23] was 26.8%, the viability, T/C [24] was 26.6% and the viability, T/C [25] was 38.9%. For the same molecule, the viability, T/C [26] was 29.7%, the viability, T/C [27] was 32.2% and the viability, T/C [28] was 27.1%. The viability, T/C [29] was 23.6% and the viability, T/C [30] was 27.1%.
Molecule `NS(=O)(=O)OCC1CC(n2ccc3c(NC4CCc5ccccc54)ncnc32)CC1O` (stereo not given) + Cc1ccccc1N=Nc1ccc(NC(=O)c2ccnn2C)c(C)c1 has an IC50 (second compound 0.1 µM) of 287 nM, an IC50 (second compound 0.316 µM) of 196 nM and an IC50 (second compound 1 µM) of 221 nM. For the same molecule, the IC50 (second compound 3.16 µM) was 131 nM, the IC50 (second compound 10 µM) was 63.7 nM and the viability, T/C [1] was 96.6%. For the same molecule, the viability, T/C [2] was 81.3%, the viability, T/C [3] was 46.1% and the viability, T/C [4] was 22.6%. The viability, T/C [5] was 11.4%, the viability, T/C [6] was 10.5% and the viability, T/C [7] was 75%. For the same molecule, the viability, T/C [8] was 63.8%, the viability, T/C [9] was 39.2% and the viability, T/C [10] was 24.9%. The viability, T/C [11] was 11.8%, the viability, T/C [12] was 10.2% and the viability, T/C [13] was 90.4%. It also gave a viability, T/C [14] of 71.1%, a viability, T/C [15] of 39% and a viability, T/C [16] of 23.5%. It also gave a viability, T/C [17] of 12%, a viability, T/C [18] of 10.1% and a viability, T/C [19] of 68.5%. For the same molecule, the viability, T/C [20] was 58.1%, the viability, T/C [21] was 26.3% and the viability, T/C [22] was 20.2%. It also gave a viability, T/C [23] of 11.9%, a viability, T/C [24] of 9.47% and a viability, T/C [25] of 65.3%. It also gave a viability, T/C [26] of 38.9%, a viability, T/C [27] of 27.1% and a viability, T/C [28] of 18%. The viability, T/C [29] was 10.8% and the viability, T/C [30] was 9.27%.
